Laboratory results from ChEMBL document CHEMBL1201862, “PubChem BioAssay data set” (2004).
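Where inhibition never reached the appropriate level, the endpoint shown equals the highest concentration tested. Otherwise, values were interpolated linearly from a five-concentration, 48-hour dose response in 96-well plates. GI50 marks 50% less growth.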 Calls of active or inactive are those of the source. Rule as the data show it: active = GI50 up to about 1.1 µM and inactive = higher.

Legend:
Test in all cases: growth of human tumour cells (NCI), 48 h
786-0 = test system: 786-0
A549 = test system: A549
ACHN = test system: ACHN
CCRF-CEM = test system: CCRF-CEM
COLO 205 = test system: COLO 205
DLD-1 = test system: DLD-1
DMS-114 = test system: DMS-114
DMS-273 = test system: DMS-273
EKVX = test system: EKVX
HCT-116 = test system: HCT-116
HCT-15 = test system: HCT-15
HOP-18 = test system: HOP-18
HOP-62 = test system: HOP-62
HT-29 = test system: HT-29
IGROV-1 = test system: IGROV-1
K562 = test system: K562
KM-20L2 = test system: KM-20L2
KM12 = test system: KM12
LOX IMVI = test system: LOX IMVI
M14 = test system: M14
M19-MEL = test system: M19-MEL
MOLT-4 = test system: MOLT-4
Malme-3M = test system: Malme-3M
NCI-H226 = test system: NCI-H226
NCI-H23 = test system: NCI-H23
NCI-H460 = test system: NCI-H460
NCI-H522 = test system: NCI-H522
OVCAR-3 = test system: OVCAR-3
OVCAR-8 = test system: OVCAR-8
RPMI-8226 = test system: RPMI-8226
RXF 393 = test system: RXF 393
SF-295 = test system: SF-295
SF-539 = test system: SF-539
SK-MEL-28 = test system: SK-MEL-28
SK-MEL-5 = test system: SK-MEL-5
SK-OV-3 = test system: SK-OV-3
SN12C = test system: SN12C
SNB-19 = test system: SNB-19
SNB-75 = test system: SNB-75
SW-620 = test system: SW-620
TK-10 = test system: TK-10
U-251 = test system: U-251
UACC-257 = test system: UACC-257
UACC-62 = test system: UACC-62
UO-31 = test system: UO-31
XF498 = test system: XF498

Measured: GI50

NC(=O)C1C(=O)Oc2cccnc21 (stereo unspecified)
> 100 µM: HCT-15
inactive: 786-0 > 100 µM | A549 > 100 µM | ACHN > 100 µM | CCRF-CEM > 100 µM | COLO 205 > 100 µM | DLD-1 > 100 µM | DMS-114 > 100 µM | DMS-273 > 100 µM | EKVX > 100 µM | HCT-116 > 100 µM | HOP-18 > 100 µM | HOP-62 > 100 µM | HT-29 > 100 µM | IGROV-1 > 100 µM | K562 > 100 µM | KM-20L2 > 100 µM | KM12 > 100 µM | LOX IMVI > 100 µM | M14 > 100 µM | M19-MEL > 100 µM | MOLT-4 > 100 µM | Malme-3M > 100 µM | NCI-H226 96.2 µM | NCI-H23 > 100 µM | NCI-H460 86.7 µM | NCI-H522 > 100 µM | OVCAR-3 > 100 µM | OVCAR-8 > 100 µM | RPMI-8226 > 100 µM | RXF 393 > 100 µM | SF-295 > 100 µM | SF-539 > 100 µM | SK-MEL-28 > 100 µM | SK-MEL-5 > 100 µM | SK-OV-3 > 100 µM | SN12C > 100 µM | SNB-19 > 100 µM | SNB-75 17.8 µM | SW-620 83 µM | TK-10 > 100 µM | U-251 > 100 µM | UACC-257 89.9 µM | UACC-62 > 100 µM | UO-31 99.8 µM | XF498 > 100 µM
